These results are taken from patent US10596103B2, “Drug delivery system for delivery of anti-virals” (Merck Sharp & Dohme B.V., priority 2013, dated 2020).

The series can be described thus: Solubility of vicriviroc in EVA by partitioning experiments. Format: physicochemical. How it is done:
The solubility of vicriviroc in EVA was determined by partitioning experiments. A small sample of polymer film (approximately 10 mg) was immersed in a saturated aqueous vicriviroc solution (5 mL PBS buffer pH 7). Once the film was immersed the drug diffused from the saturated solution into the film until an equilibrium was achieved. As a result the drug concentration of the aqueous solution decreased and the drug concentration in the film increased. The decrease of the drug concentration in the aqueous solution was continuously measured with a fiber optic probe (Rainbow Dynamic Dissolution Monitor).

As for `COC[C@@H](c1ccc(C(F)(F)F)cc1)N1CCN(C2(C)CCN(C(=O)c3c(C)ncnc3C)CC2)C[C@@H]1C` [vicriviroc], the “Vicriviroc loading above which supersaturation occurs” value (in EVA 28) is listed as “above 1.4 % by weight”. For the same compound, the “Solubility of vicriviroc in EVA 28” value (polymer film in saturated aqueous vicriviroc solution, PBS buffer pH 7, FIG. 14) is on record as 1.2-1.4 wt %.
